# Experimental data: ChEMBL document CHEMBL5247659, “Design, Structure-Activity Relationships, and In Vivo Evaluation of Potent and Brain-Penetrant Imidazo[1,2-b]pyridazines as Glycogen Synthase Kinase-3β (GSK-3β) Inhibitors” (J Med Chem, 2023)
# Tests used:
# [1] = Inhibition of N-terminal 6-His tagged human recombinant GSK3-beta H355L mutant using FL-KRREILSRRP[ps]ERYR-NH2 as substrate incubated for 20 hrs
# [2] = AUC tot in 8 hr fasted C57BL6 mouse at 10 mg/kg, po; assay type: ADME, organism-based; parameters: dose 10 mg/kg, route po; details: in vivo
# [3] = Permeability across apical to basolateral side in human Caco-2 cells at 3 uM incubated for 2 hrs by LC-MS/MS analysis; assay type: ADME, cell-based; details: read-out: permeability
# [4] = biological target: P-glycoprotein (ABCB1) (Homo sapiens, UniProt P08183); test: Substrate activity at P-glycoprotein in human Caco-2 cells assessed as efflux ratio of permeability across basolateral to apical side over apical to basolateral side at 3 uM incubated for 2 hrs by LC-MS/MS analysis; assay type: ADME, cell-based
# P-glycoprotein (ABCB1), sequence (P08183 whole entry): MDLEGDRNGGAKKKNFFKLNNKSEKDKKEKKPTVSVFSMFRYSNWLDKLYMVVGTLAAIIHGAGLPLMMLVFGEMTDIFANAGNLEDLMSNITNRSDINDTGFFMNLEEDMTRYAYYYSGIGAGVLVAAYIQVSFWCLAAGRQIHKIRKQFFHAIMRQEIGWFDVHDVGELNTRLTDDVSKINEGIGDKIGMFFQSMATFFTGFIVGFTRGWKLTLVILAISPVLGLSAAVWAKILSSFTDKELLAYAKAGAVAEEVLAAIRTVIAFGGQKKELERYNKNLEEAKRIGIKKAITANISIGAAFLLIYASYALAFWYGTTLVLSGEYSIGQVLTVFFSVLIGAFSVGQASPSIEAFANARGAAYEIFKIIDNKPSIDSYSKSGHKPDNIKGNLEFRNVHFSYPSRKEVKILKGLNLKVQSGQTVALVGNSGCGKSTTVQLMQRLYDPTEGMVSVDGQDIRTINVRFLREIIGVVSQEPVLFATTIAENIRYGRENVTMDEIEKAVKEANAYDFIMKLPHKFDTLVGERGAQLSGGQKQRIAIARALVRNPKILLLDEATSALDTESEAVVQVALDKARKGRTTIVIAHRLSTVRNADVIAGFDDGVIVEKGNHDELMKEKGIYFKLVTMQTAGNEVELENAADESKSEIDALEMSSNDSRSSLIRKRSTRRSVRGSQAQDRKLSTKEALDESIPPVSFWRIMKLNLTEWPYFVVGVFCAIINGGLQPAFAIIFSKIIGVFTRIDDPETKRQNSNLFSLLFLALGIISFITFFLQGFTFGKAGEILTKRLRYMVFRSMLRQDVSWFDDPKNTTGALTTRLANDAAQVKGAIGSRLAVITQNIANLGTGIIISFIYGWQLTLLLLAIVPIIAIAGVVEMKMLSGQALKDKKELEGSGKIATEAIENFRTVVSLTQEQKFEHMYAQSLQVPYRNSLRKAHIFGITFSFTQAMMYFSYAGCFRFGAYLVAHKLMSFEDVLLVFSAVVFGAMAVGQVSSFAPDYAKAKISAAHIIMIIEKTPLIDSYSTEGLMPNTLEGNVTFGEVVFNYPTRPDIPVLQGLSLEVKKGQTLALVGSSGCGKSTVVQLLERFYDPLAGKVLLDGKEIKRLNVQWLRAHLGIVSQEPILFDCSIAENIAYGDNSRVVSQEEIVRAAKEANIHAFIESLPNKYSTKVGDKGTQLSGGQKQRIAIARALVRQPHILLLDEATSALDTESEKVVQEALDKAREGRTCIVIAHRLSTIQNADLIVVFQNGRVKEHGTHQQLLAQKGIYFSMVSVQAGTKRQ
# [5] = biological target: Glycogen synthase kinase-3 alpha (Homo sapiens, UniProt P49840); test: Inhibition of full length GST-tagged human recombinant GSK3-alpha using FL-KRREILSRRP[ps]ERYR-NH2 as substrate incubated for 20 hrs
# Glycogen synthase kinase-3 alpha, sequence (P49840 whole entry): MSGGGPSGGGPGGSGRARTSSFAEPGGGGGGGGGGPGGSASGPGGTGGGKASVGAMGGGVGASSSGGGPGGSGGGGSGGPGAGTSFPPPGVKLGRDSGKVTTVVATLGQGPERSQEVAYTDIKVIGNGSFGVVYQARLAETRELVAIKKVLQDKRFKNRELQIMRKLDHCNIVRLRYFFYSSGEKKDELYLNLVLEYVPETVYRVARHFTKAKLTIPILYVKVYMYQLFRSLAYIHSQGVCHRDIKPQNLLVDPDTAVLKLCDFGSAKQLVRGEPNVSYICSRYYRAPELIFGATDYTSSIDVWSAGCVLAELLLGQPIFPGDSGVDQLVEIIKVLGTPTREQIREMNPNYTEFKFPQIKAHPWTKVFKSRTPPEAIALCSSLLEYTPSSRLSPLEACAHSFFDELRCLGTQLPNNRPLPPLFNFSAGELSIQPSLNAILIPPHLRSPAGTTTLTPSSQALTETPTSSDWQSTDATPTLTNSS
# [6] = MRT in 8 hr fasted C57BL6 mouse at 2 mg/kg, iv; assay type: ADME, organism-based; details: in vivo
# [7] = Clearance in 8 hr fasted C57BL6 mouse at 2 mg/kg, iv; assay type: ADME, organism-based; details: in vivo
# [8] = Volume of distribution at steady state in 8 hr fasted C57BL6 mouse at 2 mg/kg, iv; assay type: ADME, organism-based; details: in vivo, read-out: Vdss
# [9] = Plasma protein binding in mouse assessed as unbound fraction at 10 uM measured for 5 hrs by equilibrium dialysis based LC-MS/MS analysis; assay type: ADME, cell-free
# [10] = Metabolic stability in human liver microsomes assessed as parent compound remaining at 0.5 uM incubated for 10 mins by LC-MS/MS analysis; assay type: ADME, Microsome; details: read-out: Stability
# [11] = Permeability of compound at pH 7.4 incubated for 4 hrs by PAMPA assay; assay type: ADME; details: read-out: permeability
# [12] = Inhibition of tau 4R1N phosphorylation (unknown origin) at S396 residue transfected in human U2OS cells coexpressing GFP-tagged beta catenin incubated overnight by high content imaging assay
# [13] = Plasma protein binding in human assessed as unbound fraction at 10 uM measured for 5 hrs by equilibrium dialysis based LC-MS/MS analysis; assay type: ADME, cell-free
# [14] = Half life in 8 hr fasted C57BL6 mouse at 2 mg/kg, iv; assay type: ADME, organism-based; details: in vivo
# [15] = Permeability of compound at pH 5.5 incubated for 4 hrs by PAMPA assay; assay type: ADME; details: read-out: permeability
# [16] = Permeability across basolateral to apical side in human Caco-2 cells at 3 uM incubated for 2 hrs by LC-MS/MS analysis; assay type: ADME, cell-based; details: read-out: permeability
# [17] = Oral bioavailability in 8 hr fasted C57BL6 mouse at 10 mg/kg; assay type: ADME, organism-based; details: in vivo
# [18] = Metabolic stability in mouse liver microsomes assessed as parent compound remaining at 0.5 uM incubated for 10 mins by LC-MS/MS analysis; assay type: ADME, Microsome; details: read-out: Stability
# [19] = Cmax in 8 hr fasted C57BL6 mouse at 10 mg/kg, po; assay type: ADME, organism-based; parameters: dose 10 mg/kg, route po; details: in vivo
# [20] = biological target: Glycogen synthase kinase-3 beta (Homo sapiens, UniProt P49841); test: Inhibition of GSK3-beta (unknown origin)
# Glycogen synthase kinase-3 beta, sequence (P49841 whole entry): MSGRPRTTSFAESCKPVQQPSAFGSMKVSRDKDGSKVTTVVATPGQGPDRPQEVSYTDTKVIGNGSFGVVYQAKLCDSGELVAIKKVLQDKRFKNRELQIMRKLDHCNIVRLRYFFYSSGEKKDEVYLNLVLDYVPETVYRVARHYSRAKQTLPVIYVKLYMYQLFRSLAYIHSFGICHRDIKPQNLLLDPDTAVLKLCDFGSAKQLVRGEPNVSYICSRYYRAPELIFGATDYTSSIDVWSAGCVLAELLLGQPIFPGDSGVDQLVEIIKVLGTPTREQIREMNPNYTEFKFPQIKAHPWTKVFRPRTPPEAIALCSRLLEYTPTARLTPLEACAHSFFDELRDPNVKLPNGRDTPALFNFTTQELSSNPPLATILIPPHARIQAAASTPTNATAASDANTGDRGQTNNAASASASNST
structure (smiles),measurement,setting,value
O=C(Nc1cnccc1N1CCOCC1)c1ccnn2c(NCC3CC3)cnc12,IC50,[1],9 nM
O=C(Nc1cnccc1N1CCOCC1)c1ccnn2cc(-c3ccccc3)nc12,AUC,[2],47 µM·h
same,"Papp A→B at 2 h, 3 µM",[3],32.2 ×10⁻⁶ cm/s
same,"efflux ratio at 2 h, 3 µM",[4],< 1
same,IC50,[5],0.21 nM
same,MRT,[6],2.4 h
same,clearance,[7],10.6 mL/min/kg
same,Vd,[8],1.5 L/kg
same,"fraction unbound at 5 h, 10 µM",[9],0.01
same,"remaining at 10 min, 0.5 µM",[10],31%
same,Papp at 4 h,[11],29.8 ×10⁻⁶ cm/s
same,IC50,[12],36 nM
same,"fraction unbound at 5 h, 10 µM",[13],0.012
same,half-life,[14],3.1 h
same,Papp at 4 h,[15],7.8 ×10⁻⁶ cm/s
same,"Papp B→A at 2 h, 3 µM",[16],9.9 ×10⁻⁶ cm/s
same,bioavailability,[17],100%
same,"remaining at 10 min, 0.5 µM",[18],9%
same,IC50,[1],0.42 nM
same,Cmax,[19],10.7 µM
CC1CN(c2ccncc2NC(=O)c2ccnn3c(NCC4CC4)cnc23)CCO1 (centres undefined),IC50,[1],5.2 nM
O=C(Nc1cnccc1-c1ccc(F)cc1)c1ccnn2cc(C3CC3)nc12,IC50,[5],0.44 nM
same,IC50,[1],1.9 nM
CC(C)OCCCC(=O)c1n[nH]cc1NC(=O)c1ccccc1,IC50,[20],2 nM
O=C(Nc1cnccc1N1CCC(F)(F)CC1)c1ccnn2ccnc12,IC50,[5],2.4 nM
same,IC50,[1],4.6 nM
O=C(Nc1cccnc1)c1ccnn2c(NCC3CC3)cnc12,IC50,[5],510 nM
same,IC50,[1],220 nM
C[C@H]1COCCN1c1ccncc1NC(=O)c1ccnn2cc(-c3ccccc3)nc12,IC50,[5],0.32 nM
O=C(Nc1cnccc1N1CCC(F)(F)CC1)c1ccnn2cc(C3CC3)nc12,IC50,[5],0.18 nM
same,IC50,[12],120 nM
same,IC50,[1],0.43 nM
O=C(Nc1cnccc1N1CCC(F)(F)CC1)c1ccnn2cc(-c3ccccc3)nc12,"Papp A→B at 2 h, 3 µM",[3],7 ×10⁻⁶ cm/s
same,"efflux ratio at 2 h, 3 µM",[4],< 1
same,IC50,[5],0.22 nM
same,"fraction unbound at 5 h, 10 µM",[9],0.002
same,"remaining at 10 min, 0.5 µM",[10],40%
same,Papp at 4 h,[11],64.2 ×10⁻⁶ cm/s
same,IC50,[12],30 nM
same,"fraction unbound at 5 h, 10 µM",[13],0.005
same,Papp at 4 h,[15],58.1 ×10⁻⁶ cm/s
same,"Papp B→A at 2 h, 3 µM",[16],3 ×10⁻⁶ cm/s
same,"remaining at 10 min, 0.5 µM",[18],36%
same,IC50,[1],0.37 nM
O=C(Nc1cnccc1N1CCC(F)(F)CC1)c1ccnn2c(NCC3CC3)cnc12,IC50,[5],1.4 nM
same,IC50,[12],41 nM
same,IC50,[1],0.87 nM
O=C(Nc1cccnc1)c1ccnn2cc(-c3ccccc3)nc12,IC50,[5],6.7 nM
O=C(Nc1cnccc1-c1ccccc1)c1ccnn2c(NCC3CC3)cnc12,IC50,[5],2 nM
same,IC50,[1],3.5 nM
O=C(Nc1cnccc1N1CCCCC1)c1ccnn2cc(-c3ccccc3)nc12,IC50,[5],0.24 nM
same,IC50,[1],1.1 nM
O=C(Nc1cnccc1-c1ccccc1)c1ccnn2cc(-c3ccccc3)nc12,"fraction unbound at 5 h, 10 µM",[9],0.003
same,"remaining at 10 min, 0.5 µM",[10],79%
same,Papp at 4 h,[11],28.2 ×10⁻⁶ cm/s
same,IC50,[12],910 nM
same,"fraction unbound at 5 h, 10 µM",[13],< 0.001
same,Papp at 4 h,[15],20.2 ×10⁻⁶ cm/s
same,"remaining at 10 min, 0.5 µM",[18],83%
same,IC50,[1],3.6 nM
C[C@H]1CN(c2ccncc2NC(=O)c2ccnn3cc(-c4ccccc4)nc23)CCO1,IC50,[5],0.1 nM
same,IC50,[1],0.13 nM
CC1CN(c2ccncc2NC(=O)c2ccnn3cc(C4CC4)nc23)CCO1 (centres undefined),AUC,[2],3.3 µM·h
same,"Papp A→B at 2 h, 3 µM",[3],22.3 ×10⁻⁶ cm/s
same,"efflux ratio at 2 h, 3 µM",[4],< 1
same,MRT,[6],0.6 h
same,clearance,[7],49.5 mL/min/kg
same,Vd,[8],1.9 L/kg
same,"fraction unbound at 5 h, 10 µM",[9],0.031
same,"remaining at 10 min, 0.5 µM",[10],3%
same,Papp at 4 h,[11],107 ×10⁻⁶ cm/s
same,IC50,[12],60 nM
same,"fraction unbound at 5 h, 10 µM",[13],0.015
same,half-life,[14],1.1 h
same,Papp at 4 h,[15],86.9 ×10⁻⁶ cm/s
same,"Papp B→A at 2 h, 3 µM",[16],13.3 ×10⁻⁶ cm/s
same,bioavailability,[17],37%
same,"remaining at 10 min, 0.5 µM",[18],4%
same,IC50,[1],2.6 nM
same,Cmax,[19],1.3 µM
Cc1ccncc1NC(=O)c1ccnn2c(NCC3CC3)cnc12,IC50,[1],63 nM
CC1CN(c2ccncc2NC(=O)c2ccnn3cc(-c4ccc(C(F)(F)F)cc4)nc23)CCO1 (centres undefined),IC50,[5],0.57 nM
same,IC50,[1],1.4 nM
CC(C)Oc1ccncc1NC(=O)c1ccnn2c(NCC3CC3)cnc12,IC50,[1],6.7 nM
C[C@@H]1CN(c2ccncc2NC(=O)c2ccnn3cc(-c4ccccc4)nc23)CCO1,IC50,[5],0.34 nM
same,IC50,[1],0.82 nM
COc1ccccc1-c1cn2nccc(C(=O)Nc3cnccc3N3CCOC(C)C3)c2n1 (centres undefined),IC50,[5],0.38 nM
same,IC50,[1],0.57 nM
O=C(Nc1cnccc1-c1ccc(F)cc1)c1ccnn2cc(-c3ccccc3)nc12,IC50,[5],1.1 nM
same,"fraction unbound at 5 h, 10 µM",[9],0.002
same,"remaining at 10 min, 0.5 µM",[10],91%
same,"fraction unbound at 5 h, 10 µM",[13],0.003
same,Papp at 4 h,[15],96 ×10⁻⁶ cm/s
same,"remaining at 10 min, 0.5 µM",[18],92%
same,IC50,[1],1.6 nM
O=C(Nc1cnc(Cl)cc1N1CCC(F)(F)CC1)c1ccnn2cc(-c3ccccc3)nc12,IC50,[1],14 nM
CC1CN(c2ccncc2NC(=O)c2ccnn3ccnc23)CCO1 (centres undefined),IC50,[1],7 nM
O=C(Nc1cnccc1OCC(F)(F)F)c1ccnn2cc(-c3ccccc3)nc12,IC50,[5],0.09 nM
same,IC50,[1],0.29 nM
CS(=O)(=O)c1ccncc1NC(=O)c1ccnn2cc(-c3ccccc3)nc12,IC50,[1],1.5 nM
Cc1ccncc1NC(=O)c1ccnn2cc(-c3ccccc3)nc12,IC50,[1],3.5 nM
C[C@@H]1COCCN1c1ccncc1NC(=O)c1ccnn2cc(-c3ccccc3)nc12,IC50,[1],3.4 nM
CC(C)Oc1ccncc1NC(=O)c1ccnn2cc(-c3ccccc3)nc12,IC50,[5],0.41 nM
same,IC50,[12],83 nM
same,IC50,[1],0.7 nM
O=C(Nc1cnccc1N1CCOCC1)c1ccnn2cc(-c3ccc(C(F)(F)F)cc3)nc12,IC50,[5],0.23 nM
same,IC50,[1],0.78 nM
COc1cncc(NC(=O)c2ccnn3cc(-c4ccccc4)nc23)c1,IC50,[5],7.5 nM
same,IC50,[1],37 nM
